Test results: PubChem BioAssay AID248 (DTP/NCI, 2004)
Toxic doses and inconclusive results are not listed. Rule as the data show it: active = T/C of 150% or more; inactive = T/C below 125%.

Test system: L1210 leukemia ip in BDF1 mice, survival T/C
Test: NCI In Vivo Anticancer Drug Screen. Data for tumor model L1210 Leukemia (intraperitoneal) in B6D2F1 (BDF1) mice
Settings: endpoint: mean survival time, higher = longer survival
Method in brief: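 Ratio derived from survival: compound-dosed mice over vehicle-dosed mice, all bearing a transplantable tumor.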

[1] = dose: 50.0 mg/kg/injection, schedule: Q01DX009 (ip), vehicle: saline
[2] = dose: 100.0 mg/kg/injection, schedule: Q01DX009 (ip), vehicle: saline
[3] = dose: 100.0 mg/kg/injection, schedule: Q04DX003 (ip), vehicle: saline with Tween-80
[4] = dose: 200.0 mg/kg/injection, schedule: Q04DX003 (ip), vehicle: saline with Tween-80
[5] = dose: 100.0 mg/kg/injection, schedule: Q01DX001 (ip), vehicle: saline
[6] = dose: 200.0 mg/kg/injection, schedule: Q01DX001 (ip), vehicle: saline
[7] = dose: 400.0 mg/kg/injection, schedule: Q01DX001 (ip), vehicle: saline
[8] = dose: 100.0 mg/kg/injection, schedule: Q04DX003 (ip), vehicle: saline
[9] = dose: 200.0 mg/kg/injection, schedule: Q04DX003 (ip), vehicle: saline
[10] = dose: 100.0 mg/kg/injection, schedule: Q04DX003 (ip), vehicle: Klucel (hydroxypropylcellulose) (HPC)
[11] = dose: 200.0 mg/kg/injection, schedule: Q04DX003 (ip), vehicle: Klucel (hydroxypropylcellulose) (HPC)
[12] = dose: 400.0 mg/kg/injection, schedule: Q04DX003 (ip), vehicle: Klucel (hydroxypropylcellulose) (HPC)
[13] = dose: 400.0 mg/kg/injection, schedule: Q04DX003 (ip), vehicle: saline
[14] = dose: 75.0 mg/kg/injection, schedule: Q01DX001 (ip), vehicle: saline
[15] = dose: 150.0 mg/kg/injection, schedule: Q01DX001 (ip), vehicle: saline

Measured: T/C

CCOC(=O)CNC(=O)C(CSC(c1ccccc1)(c1ccccc1)c1ccccc1)NC(c1ccccc1)(c1ccccc1)c1ccccc1 (configuration not stated)
inactive: [1] 89 % of control | [2] 103 % of control | dose: 200.0 mg/kg/injection, schedule: Q01DX009 (ip), vehicle: saline 92 % of control | dose: 400.0 mg/kg/injection, schedule: Q01DX009 (ip), vehicle: saline 94 % of control

COc1ccc(C(c2ccc(OC)cc2)c2cccc([N+](=O)[O-])c2)cc1
inactive: [3] 97 % of control | [4] 92 % of control

O=C(O)CCC(=O)c1ccc(C2CCCC2)c2ccccc12
inactive: dose: 100.0 mg/kg/injection, schedule: Q01DX001 (ip), vehicle: carboxymethylcellulose (CMC) 91 % of control | dose: 200.0 mg/kg/injection, schedule: Q01DX001 (ip), vehicle: carboxymethylcellulose (CMC) 93 % of control | dose: 400.0 mg/kg/injection, schedule: Q01DX001 (ip), vehicle: carboxymethylcellulose (CMC) 89 % of control

CN(C)CCCN1CCC2(CC[Si](C)(C)CC2)C1
inactive: [5] 94 % of control

ClC(Cl)=C(c1ccc(Cl)cc1)c1ccc(Cl)cc1
inactive: [5] 101 % of control | dose: 100.0 mg/kg/injection, schedule: Q04DX002 (ip), vehicle: gum acacia 114 % of control | [6] 110 % of control | dose: 200.0 mg/kg/injection, schedule: Q04DX002 (ip), vehicle: gum acacia 91 % of control | [7] 98 % of control | dose: 400.0 mg/kg/injection, schedule: Q04DX002 (ip), vehicle: gum acacia 100 % of control

C=C(C)[C@H]1Cc2c(ccc3c2O[C@@H]2COc4cc(OC)c(OC)cc4[C@@H]2C3=O)O1
inactive: dose: 0.25 mg/kg/injection, schedule: Q01DX Z (ip), vehicle: other 95 % of control | dose: 0.5 mg/kg/injection, schedule: Q01DX Z (ip), vehicle: other 97 % of control | dose: 0.5 mg/kg/injection, schedule: Q02DX Z (ip), vehicle: water 96 % of control | dose: 0.75 mg/kg/injection, schedule: Q01DX Z (ip), vehicle: other 95 % of control | dose: 0.75 mg/kg/injection, schedule: Q02DX Z (ip), vehicle: water 101 % of control | dose: 1.0 mg/kg/injection, schedule: Q01DX Z (ip), vehicle: other 88 % of control | dose: 1.0 mg/kg/injection, schedule: Q02DX Z (ip), vehicle: water 102 % of control | dose: 2.0 mg/kg/injection, schedule: Q01DX015 (ip), vehicle: saline 97 % of control | dose: 2.0 mg/kg/injection, schedule: Q02DX Z (ip), vehicle: water 107 % of control | dose: 4.0 mg/kg/injection, schedule: Q01DX015 (ip), vehicle: saline 101 % of control | dose: 8.0 mg/kg/injection, schedule: Q01DX015 (ip), vehicle: saline 109 % of control | dose: 16.0 mg/kg/injection, schedule: Q01DX015 (ip), vehicle: saline 109 % of control

NC1CCC(Cl)CC1 (configuration not stated)
inactive: [5] 95 % of control | [8] 99 % of control | [6] 106 % of control | [9] 99 % of control | [7] 92 % of control

CCC[CH2][Sn]([CH2]CCC)([CH2]CCC)[S]C(=S)NCCNC(=S)[S][Sn]([CH2]CCC)([CH2]CCC)[CH2]CCC
inactive: dose: 0.5 mg/kg/injection, schedule: Q01DX015 (ip), vehicle: carboxymethylcellulose (CMC) 101 % of control | dose: 1.0 mg/kg/injection, schedule: Q01DX015 (ip), vehicle: carboxymethylcellulose (CMC) 103 % of control | dose: 2.5 mg/kg/injection, schedule: Q01DX001 (ip), vehicle: saline 108 % of control | dose: 2.5 mg/kg/injection, schedule: Q01DX015 (ip), vehicle: carboxymethylcellulose (CMC) 110 % of control | dose: 5.0 mg/kg/injection, schedule: Q01DX001 (ip), vehicle: saline 108 % of control | dose: 5.0 mg/kg/injection, schedule: Q01DX015 (ip), vehicle: carboxymethylcellulose (CMC) 103 % of control | dose: 10.0 mg/kg/injection, schedule: Q01DX001 (ip), vehicle: saline 101 % of control | dose: 10.0 mg/kg/injection, schedule: Q01DX015 (ip), vehicle: carboxymethylcellulose (CMC) 113 % of control | dose: 20.0 mg/kg/injection, schedule: Q01DX015 (ip), vehicle: carboxymethylcellulose (CMC) 101 % of control | dose: 30.0 micrograms/kg/injection, schedule: Q01DX015 (ip), vehicle: carboxymethylcellulose (CMC) 106 % of control | dose: 60.0 micrograms/kg/injection, schedule: Q01DX015 (ip), vehicle: carboxymethylcellulose (CMC) 110 % of control | dose: 120.0 micrograms/kg/injection, schedule: Q01DX015 (ip), vehicle: carboxymethylcellulose (CMC) 102 % of control | dose: 240.0 micrograms/kg/injection, schedule: Q01DX015 (ip), vehicle: carboxymethylcellulose (CMC) 102 % of control

CN(Cc1ccccc1)c1cc(=O)[nH]c(=O)[nH]1
inactive: [10] 102 % of control | [11] 96 % of control | [12] 100 % of control

COC(=O)CNC(=O)C1CSC(C)(C)N1C=O (configuration not stated)
inactive: [8] 104 % of control | [9] 101 % of control | [13] 98 % of control

O=[N+]([O-])c1cc(Br)c(Br)cc1N1CCCC1
inactive: [8] 98 % of control | [9] 88 % of control | [13] 86 % of control

NC(=O)C[n+]1cccc(C(=O)Nc2ccc(Cl)cc2)c1
inactive: [3] 98 % of control | [4] 101 % of control

O=C(N/N=C/c1ccc2c(c1)OCO2)c1cccc2ccccc12
inactive: [5] 97 % of control | [6] 86 % of control | [7] 97 % of control

NCCCCCCN=C(N)C(N)=NCCCCCCN
inactive: dose: 1.5 mg/kg/injection, schedule: Q01DX009 (ip), vehicle: Klucel (hydroxypropylcellulose) (HPC) 96 % of control | dose: 3.0 mg/kg/injection, schedule: Q01DX009 (ip), vehicle: Klucel (hydroxypropylcellulose) (HPC) 112 % of control | dose: 6.0 mg/kg/injection, schedule: Q01DX009 (ip), vehicle: Klucel (hydroxypropylcellulose) (HPC) 102 % of control | dose: 12.5 mg/kg/injection, schedule: Q04DX003 (ip), vehicle: Klucel (hydroxypropylcellulose) (HPC) 93 % of control | dose: 25.0 mg/kg/injection, schedule: Q04DX003 (ip), vehicle: Klucel (hydroxypropylcellulose) (HPC) 93 % of control

CC(C)(SCCc1ccncc1)C(N)C(=O)O (configuration not stated)
inactive: [10] 97 % of control | [11] 92 % of control | [12] 94 % of control

CN1CCN(Cn2cnc3c2c(=O)n(C)c(=O)n3C)CC1
inactive: [14] 92 % of control | [15] 100 % of control | dose: 300.0 mg/kg/injection, schedule: Q01DX001 (ip), vehicle: saline 122 % of control

O=C1C=CC(=O)C2C3C=CC(CC3)C12 (configuration not stated)
inactive: [5] 107 % of control | [6] 98 % of control | [7] 98 % of control

O=C(CCCC(O)(C1CC1)C1CC1)C1CC1
inactive: dose: 100.0 mg/kg/injection, schedule: Q01DX009 (ip), vehicle: acetone 106 % of control | dose: 100.0 mg/kg/injection, schedule: Q04DX003 (ip), vehicle: acetone 112 % of control | dose: 200.0 mg/kg/injection, schedule: Q01DX009 (ip), vehicle: acetone 106 % of control | dose: 200.0 mg/kg/injection, schedule: Q04DX003 (ip), vehicle: acetone 101 % of control | dose: 400.0 mg/kg/injection, schedule: Q01DX009 (ip), vehicle: acetone 109 % of control | dose: 400.0 mg/kg/injection, schedule: Q04DX003 (ip), vehicle: acetone 101 % of control

C=C(C)C(=O)OCC(O)C[N+](C)(C)C (configuration not stated)
inactive: dose: 25.0 mg/kg/injection, schedule: Q01DX009 (ip), vehicle: saline 98 % of control | [1] 101 % of control | [14] 101 % of control | [2] 97 % of control | [15] 98 % of control

CC(=O)N(c1ccccc1)C(C(=O)c1ccccc1)c1ccccc1 (configuration not stated)
inactive: dose: 50.0 mg/kg/injection, schedule: Q01DX001 (ip), vehicle: saline 98 % of control | [5] 102 % of control | [6] 108 % of control | [7] 98 % of control

NC(Cc1ccccc1)c1ccc2oc3ccccc3c2c1 (configuration not stated)
inactive: dose: 100.0 mg/kg/injection, schedule: Q01DX001 (ip), vehicle: Klucel (hydroxypropylcellulose) (HPC) 96 % of control | dose: 200.0 mg/kg/injection, schedule: Q01DX001 (ip), vehicle: Klucel (hydroxypropylcellulose) (HPC) 100 % of control | dose: 400.0 mg/kg/injection, schedule: Q01DX001 (ip), vehicle: Klucel (hydroxypropylcellulose) (HPC) 103 % of control
